From patent US20100003250A1, “(2-ARYL-7H-PYRROLO[2,3-D]PYRIMIDIN-4-YL)MORPHOLINE COMPOUNDS, THEIR USE AS MTOR KINASE AND PI3 KINASE INHIBITORS, AND THEIR SYNTHESES” (Wyeth, priority 2008, published 2010)

What was measured:
Assay type in all cases: biochemical
[1] = biological target: PI3Kα (Homo sapiens, UniProt P42336); test: PI3K-alpha fluorescence polarization assay; settings: 20 μM PIP2, 25 μM ATP; read-out: PI3Kα Median IC50
[2] = biological target: PI3Kγ (Homo sapiens, UniProt P48736); test: PI3K-gamma fluorescence polarization assay; settings: 20 μM PIP2, 25 μM ATP; read-out: PI3Kγ Median IC50
Sequence of PI3Kγ (P48736 whole entry, species assumed): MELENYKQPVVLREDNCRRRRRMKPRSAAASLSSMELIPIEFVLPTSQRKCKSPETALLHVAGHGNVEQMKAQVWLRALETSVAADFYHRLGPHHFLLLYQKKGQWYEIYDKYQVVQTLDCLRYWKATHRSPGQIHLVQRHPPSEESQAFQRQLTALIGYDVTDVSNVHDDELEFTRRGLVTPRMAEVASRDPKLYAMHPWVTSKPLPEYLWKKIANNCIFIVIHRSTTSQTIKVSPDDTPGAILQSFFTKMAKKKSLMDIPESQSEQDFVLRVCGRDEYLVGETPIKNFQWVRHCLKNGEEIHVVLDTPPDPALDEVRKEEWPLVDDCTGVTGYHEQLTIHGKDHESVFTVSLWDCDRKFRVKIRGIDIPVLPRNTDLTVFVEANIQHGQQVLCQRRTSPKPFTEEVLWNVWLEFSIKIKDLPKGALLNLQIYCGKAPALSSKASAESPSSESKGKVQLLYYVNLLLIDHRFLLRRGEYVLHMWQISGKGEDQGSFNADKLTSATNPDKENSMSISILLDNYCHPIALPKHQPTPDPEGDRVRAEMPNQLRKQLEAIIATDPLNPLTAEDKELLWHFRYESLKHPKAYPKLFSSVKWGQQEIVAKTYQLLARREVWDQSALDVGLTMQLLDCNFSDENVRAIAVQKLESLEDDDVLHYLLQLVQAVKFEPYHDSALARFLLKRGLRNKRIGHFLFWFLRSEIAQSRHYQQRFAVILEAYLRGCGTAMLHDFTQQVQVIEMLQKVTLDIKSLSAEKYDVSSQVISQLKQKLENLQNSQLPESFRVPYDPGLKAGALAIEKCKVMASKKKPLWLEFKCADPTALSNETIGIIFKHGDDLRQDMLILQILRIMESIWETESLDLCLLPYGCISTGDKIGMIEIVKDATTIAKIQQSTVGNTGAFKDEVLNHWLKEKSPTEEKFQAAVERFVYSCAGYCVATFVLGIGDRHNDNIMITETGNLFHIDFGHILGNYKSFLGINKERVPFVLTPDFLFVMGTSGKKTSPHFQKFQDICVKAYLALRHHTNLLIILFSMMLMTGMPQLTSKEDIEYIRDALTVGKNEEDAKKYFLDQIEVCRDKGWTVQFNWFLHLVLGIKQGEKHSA
Procedure: PI3K-alpha and PI3K-gamma Fluorescence Polarization Assay Protocols
The reaction buffer was 20 mM HEPES pH 7.5, 2 mM MgCl2, 0.05% CHAPS, and 0.01% βME (added fresh). The substrate solution was 40 μM PIP2 (diC8, Echelon, Salt Lake City Utah cat # P-4508, 1 mM in water) and 50 μM ATP in the reaction buffer. Nunc 384-well black polypropylene fluorescent plates were used for PI3K assays. The assay is run by putting 9.5 μl of freshly diluted enzyme in the reaction buffer per well, adding 0.5 μl of diluted drug or DMSO, and mixing. Then 10 μl of the substrate solution is added to each well to start the reaction. A final concentration of 20 μM PIP2 and 25 μM ATP in the reaction was used. Reactions were allowed to proceed for 30-60 minutes at room temperature. After 30-60 minutes, 20 μl of a solution of 10 nM TAMRA detector (Red detector probe-Echelon) and 2.5 μM of GST-murineGRP (1.5 mg/ml in 17% glycerol) was added per well to stop the reaction. The resulting solution was mixed well and allowed to stand for 90-110 minutes before reading plate. Assay Plates were read on Perkin-Elmer Envision plate readers with appropriate filters for Tamra [BODIPY-TMRI(1,3,4,5)P4]. Data obtained were used to calculate enzymatic activity and enzyme inhibition by inhibitor compounds. It is important to keep Red probe solutions dark. This procedure is adapted from Echelon Biosciences Inc procedure for their PI3-Kinase fluorescence polarization activity Assay kit Product number K-1100.

[3] = biological target: T1, mTOR Kinase (FLAG-TOR) (Homo sapiens, UniProt P42345); test: mTOR kinase assay, purified enzyme, DELFIA format; settings: 100 μM ATP, 1.25 μM His6-S6K; read-out: mTOR Kinase Median IC50
T1 construct: FLAG

Sequence of PI3Kα (P42336 whole entry, species assumed): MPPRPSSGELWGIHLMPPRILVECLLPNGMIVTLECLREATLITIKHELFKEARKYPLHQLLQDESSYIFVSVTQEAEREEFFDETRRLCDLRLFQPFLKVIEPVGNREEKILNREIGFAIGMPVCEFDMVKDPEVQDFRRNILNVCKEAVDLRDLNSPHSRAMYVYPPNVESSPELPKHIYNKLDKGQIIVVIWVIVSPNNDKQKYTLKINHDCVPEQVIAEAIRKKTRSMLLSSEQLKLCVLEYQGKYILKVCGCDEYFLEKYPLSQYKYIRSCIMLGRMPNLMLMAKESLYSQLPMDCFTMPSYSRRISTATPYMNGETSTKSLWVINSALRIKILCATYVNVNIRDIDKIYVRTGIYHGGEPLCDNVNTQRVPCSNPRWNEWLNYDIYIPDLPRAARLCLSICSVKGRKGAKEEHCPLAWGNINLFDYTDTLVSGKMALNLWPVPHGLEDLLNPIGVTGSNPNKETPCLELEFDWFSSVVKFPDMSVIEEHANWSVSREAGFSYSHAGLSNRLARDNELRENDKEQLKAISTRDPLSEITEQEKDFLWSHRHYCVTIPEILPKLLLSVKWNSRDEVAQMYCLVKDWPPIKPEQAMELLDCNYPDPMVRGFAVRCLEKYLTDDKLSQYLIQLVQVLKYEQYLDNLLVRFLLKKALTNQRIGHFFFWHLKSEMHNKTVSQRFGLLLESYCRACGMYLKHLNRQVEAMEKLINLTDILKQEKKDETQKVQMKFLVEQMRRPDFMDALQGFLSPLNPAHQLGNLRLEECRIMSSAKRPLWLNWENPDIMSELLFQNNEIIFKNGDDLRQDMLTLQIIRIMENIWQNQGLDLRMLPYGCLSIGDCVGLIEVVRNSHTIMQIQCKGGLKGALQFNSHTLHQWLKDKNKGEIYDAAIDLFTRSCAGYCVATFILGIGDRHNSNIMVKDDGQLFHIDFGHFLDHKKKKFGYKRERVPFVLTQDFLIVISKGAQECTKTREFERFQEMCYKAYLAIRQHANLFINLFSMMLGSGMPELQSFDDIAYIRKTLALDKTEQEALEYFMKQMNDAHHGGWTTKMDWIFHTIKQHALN
Sequence of PI3Kα (P27986 whole entry partner, species assumed): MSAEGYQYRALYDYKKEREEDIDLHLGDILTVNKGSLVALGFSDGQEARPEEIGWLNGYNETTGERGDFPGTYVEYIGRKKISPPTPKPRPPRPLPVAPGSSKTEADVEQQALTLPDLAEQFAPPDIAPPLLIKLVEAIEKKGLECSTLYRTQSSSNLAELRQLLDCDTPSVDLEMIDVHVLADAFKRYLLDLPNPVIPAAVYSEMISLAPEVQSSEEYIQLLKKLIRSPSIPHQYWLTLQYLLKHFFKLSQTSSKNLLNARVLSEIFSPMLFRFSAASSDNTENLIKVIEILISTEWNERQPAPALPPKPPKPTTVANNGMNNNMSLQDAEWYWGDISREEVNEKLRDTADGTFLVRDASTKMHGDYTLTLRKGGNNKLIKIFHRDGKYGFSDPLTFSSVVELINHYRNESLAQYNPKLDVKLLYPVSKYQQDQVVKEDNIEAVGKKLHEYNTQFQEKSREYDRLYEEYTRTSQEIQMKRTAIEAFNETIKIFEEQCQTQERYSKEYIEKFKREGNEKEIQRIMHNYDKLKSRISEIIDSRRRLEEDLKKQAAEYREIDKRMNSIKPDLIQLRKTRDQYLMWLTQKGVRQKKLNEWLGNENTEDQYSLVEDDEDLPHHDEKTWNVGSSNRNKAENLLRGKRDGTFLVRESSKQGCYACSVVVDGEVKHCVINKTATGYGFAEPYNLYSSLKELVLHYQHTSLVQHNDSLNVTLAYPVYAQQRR

Row | Structure (SMILES) | IC50 [1] [nM] | IC50 [2] [nM] | IC50 [3] [nM]
1 | CN(C)CCn1ccc2c(N3CCOCC3)nc(-c3ccc(NC(=O)NCCc4c[nH]c5ccccc45)cc3)nc21 [Compound 18, 1-(4-{7-[2-(dimethylamino)ethyl]-4-morpholin-4-yl-7H-pyrrolo[2,3-d]pyrimidin-2-yl}phenyl)-3-[2-(1H-indol-3-yl)ethyl]urea] | 1400 | 2180 | 102
2 | NC(=O)Nc1cccc(Cn2ccc3c(N4CCOCC4)nc(-c4cccc(CO)c4)nc32)c1 [Compound 19, 1-[3-({2-[3-(hydroxymethyl)phenyl]-4-morpholin-4-yl-7H-pyrrolo[2,3-d]pyrimidin-7-yl}methyl)phenyl]urea] | 99 | 868 | 435
3 | NC(=O)Nc1cccc(Cn2ccc3c(N4CCOCC4)nc(-c4ccc(NC(=O)Nc5ccncc5)cc4)nc32)c1 [Compound 20, 1-(4-{7-[3-(carbamoylamino)benzyl]-4-morpholin-4-yl-7H-pyrrolo[2,3-d]pyrimidin-2-yl}phenyl)-3-pyridin-4-ylurea] | 61 | 196 | 3.5
4 | O=C(Nc1ccncc1)Nc1ccc(-c2nc(N3CCOCC3)c3ccn(CCNc4ccc(F)cc4)c3n2)cc1 [Compound 25, 1-[4-(7-{2-[(4-fluorophenyl)amino]ethyl}-4-morpholin-4-yl-7H-pyrrolo[2,3-d]pyrimidin-2-yl)phenyl]-3-pyridin-4-ylurea] | 41 | 418 | 33
5 | O=C(Nc1ccncc1)Nc1ccc(-c2nc(N3CCOCC3)c3ccn(CCNCCc4cnc[nH]4)c3n2)cc1 [Compound 30, 1-{4-[7-(2-{[2-(1H-imidazol-5-yl)ethyl]amino}ethyl)-4-morpholin-4-yl-7H-pyrrolo[2,3-d]pyrimidin-2-yl]phenyl}-3-pyridin-4-ylurea] | 14 | 245 | 10.7
6 | CC(C)(C)NCCn1ccc2c(N3CCOCC3)nc(-c3ccc(NC(=O)Nc4ccncc4)cc3)nc21 [Compound 31, 1-(4-{7-[2-(tert-butylamino)ethyl]-4-morpholin-4-yl-7H-pyrrolo[2,3-d]pyrimidin-2-yl}phenyl)-3-pyridin-4-ylurea] | 86 | 404 | 25.5
7 | CC(C)NCCn1ccc2c(N3CCOCC3)nc(-c3ccc(NC(=O)Nc4ccncc4)cc3)nc21 [Compound 32, 1-(4-{7-[2-(isopropylamino)ethyl]-4-morpholin-4-yl-7H-pyrrolo[2,3-d]pyrimidin-2-yl}phenyl)-3-pyridin-4-ylurea] | 37 | 245 | 23
8 | CNCCn1ccc2c(N3CCOCC3)nc(-c3ccc(NC(=O)Nc4ccncc4)cc3)nc21 [Compound 33, 1-(4-{7-[2-(methylamino)ethyl]-4-morpholin-4-yl-7H-pyrrolo[2,3-d]pyrimidin-2-yl}phenyl)-3-pyridin-4-ylurea] | 12 | 100 | 5.3
9 | O=C(Nc1ccncc1)Nc1ccc(-c2nc(N3CCOCC3)c3ccn(CC4NC(=O)NC4=O)c3n2)cc1 (stereo not drawn) [Compound 35, 1-(4-{7-[(2,5-dioxoimidazolidin-4-yl)methyl]-4-morpholin-4-yl-7H-pyrrolo[2,3-d]pyrimidin-2-yl}phenyl)-3-pyridin-4-ylurea] | 12 | 100 | 1.55
10 | O=C(Nc1ccc(-c2nc(N3CCOCC3)c3ccn(CC(F)(F)F)c3n2)cc1)Nc1cccnc1 [Compound 37, 1-{4-[4-morpholin-4-yl-7-(2,2,2-trifluoroethyl)-7H-pyrrolo[2,3-d]pyrimidin-2-yl]phenyl}-3-pyridin-3-ylurea] | 26 | 97 | 1.09
11 | O=C(Nc1ccc(F)cc1)Nc1ccc(-c2nc(N3CCOCC3)c3ccn(CC(F)(F)F)c3n2)cc1 [Compound 38, 1-(4-fluorophenyl)-3-{4-[4-morpholin-4-yl-7-(2,2,2-trifluoroethyl)-7H-pyrrolo[2,3-d]pyrimidin-2-yl]phenyl}urea] | 82 | 1530 | 3.45
12 | CN1CCN(c2ccc(NC(=O)Nc3ccc(-c4nc(N5CCOCC5)c5ccn(CC(F)(F)F)c5n4)cc3)cc2)CC1 [Compound 39, 1-[4-(4-methylpiperazin-1-yl)phenyl]-3-{4-[4-morpholin-4-yl-7-(2,2,2-trifluoroethyl)-7H-pyrrolo[2,3-d]pyrimidin-2-yl]phenyl}urea] | 17 | 41 | 1.95
13 | O=C(Nc1ccc(CO)cc1)Nc1ccc(-c2nc(N3CCOCC3)c3ccn(CC(F)(F)F)c3n2)cc1 [Compound 40, 1-[4-(hydroxymethyl)phenyl]-3-{4-[4-morpholin-4-yl-7-(2,2,2-trifluoroethyl)-7H-pyrrolo[2,3-d]pyrimidin-2-yl]phenyl}urea] | 12 | 80 | 1.09
14 | CN(C)CCNC(=O)Nc1ccc(-c2nc(N3CCOCC3)c3ccn(CC(F)(F)F)c3n2)cc1 [Compound 41, 1-[2-(dimethylamino)ethyl]-3-{4-[4-morpholin-4-yl-7-(2,2,2-trifluoroethyl)-7H-pyrrolo[2,3-d]pyrimidin-2-yl]phenyl}urea] | 154 | 664 | 110
15 | O=C(NCCO)Nc1ccc(-c2nc(N3CCOCC3)c3ccn(CC(F)(F)F)c3n2)cc1 [Compound 42, 1-(2-hydroxyethyl)-3-{4-[4-morpholin-4-yl-7-(2,2,2-trifluoroethyl)-7H-pyrrolo[2,3-d]pyrimidin-2-yl]phenyl}urea] | 110 | 390 | 0.94
16 | O=C(Nc1ccc(-c2nc(N3CCOCC3)c3ccn(CC(F)(F)F)c3n2)cc1)OCCO [Compound 43, 2-hydroxyethyl{4-[4-morpholin-4-yl-7-(2,2,2-trifluoroethyl)-7H-pyrrolo[2,3-d]pyrimidin-2-yl]phenyl}carbamate] | 570 | 1720 | 3.9
17 | Cn1ccc2c(N3CCOCC3)nc(-c3ccc(NC(=O)Nc4cccnc4)cc3)nc21 [Compound 44, 1-[4-(7-methyl-4-morpholin-4-yl-7H-pyrrolo[2,3-d]pyrimidin-2-yl)phenyl]-3-pyridin-3-ylurea] | 26 | 144 | 1.9
18 | Nc1nc2cc(-c3nc(N4CCOCC4)c4ccn(CC(F)(F)F)c4n3)ccc2[nH]1 [Compound 45, 5-[4-morpholin-4-yl-7-(2,2,2-trifluoroethyl)-7H-pyrrolo[2,3-d]pyrimidin-2-yl]-1H-benzimidazol-2-amine] | 45 | 506 | 36.5
19 | O=C(Nc1cccnc1)Nc1nc2cc(-c3nc(N4CCOCC4)c4ccn(CC(F)(F)F)c4n3)ccc2[nH]1 [Compound 46, 1-{5-[4-morpholin-4-yl-7-(2,2,2-trifluoroethyl)-7H-pyrrolo[2,3-d]pyrimidin-2-yl]-1H-benzimidazol-2-yl}-3-pyridin-3-ylurea] | 14 | 104 | 3.4
20 | O=C(Nc1nc2cc(-c3nc(N4CCOCC4)c4ccn(CC(F)(F)F)c4n3)ccc2[nH]1)c1ccncc1 [Compound 47, N-{5-[4-morpholin-4-yl-7-(2,2,2-trifluoroethyl)-7H-pyrrolo[2,3-d]pyrimidin-2-yl]-1H-benzimidazol-2-yl}isonicotinamide] | 1080 | 5230 | 300
21 | CNc1nc2cc(-c3nc(N4CCOCC4)c4ccn(CC(F)(F)F)c4n3)ccc2[nH]1 [Compound 48, N-methyl-5-[4-morpholin-4-yl-7-(2,2,2-trifluoroethyl)-7H-pyrrolo[2,3-d]pyrimidin-2-yl]-1H-benzimidazol-2-amine] | 1200 | 3660 | 340
22 | CCOC(=O)Nc1nc2cc(-c3nc(N4CCOCC4)c4ccn(CC(F)(F)F)c4n3)ccc2[nH]1 [Compound 49, ethyl {5-[4-morpholin-4-yl-7-(2,2,2-trifluoroethyl)-7H-pyrrolo[2,3-d]pyrimidin-2-yl]-1H-benzimidazol-2-yl}carbamate] | 1840 | 210 | 1450
23 | COC(=O)c1ccc(NC(=O)Nc2ccc(-c3nc(N4CCOCC4)c4ccn(CC(F)(F)F)c4n3)cc2)cc1 [Compound 50, methyl 4-[({4-[4-morpholin-4-yl-7-(2,2,2-trifluoroethyl)-7H-pyrrolo[2,3-d]pyrimidin-2-yl]phenyl}carbamoyl)amino]benzoate] | 8710 | > 10000 | 4.9
24 | CN(C)CCNC(=O)c1ccc(NC(=O)Nc2ccc(-c3nc(N4CCOCC4)c4ccn(CC(F)(F)F)c4n3)cc2)cc1 [Compound 52, N-[2-(dimethylamino)ethyl]-4-[({4-[4-morpholin-4-yl-7-(2,2,2-trifluoroethyl)-7H-pyrrolo[2,3-d]pyrimidin-2-yl]phenyl}carbamoyl)amino]benzamide] | 1.1 | 24 | 0.3
